For orientation: pIC50 means the IC50 on a negative log10 scale, so that one unit is a factor of ten. Low readings indicate a high IC50, high ones a low IC50. The term inhibition denotes how much of the control response was suppressed.

Results on 14 compounds are retold here after patent US20040067915A1, “Method to treat cardiofibrosis with a combination of an angiotensin II antagonist and spironolactone” (G.D. Searle & Co., priority 1995, published 2004).

Assay [1] has as its target angiotensin II AT1 receptor. In words: Assay A: Angiotensin II Binding Activity (125I-AII displacement, rat uterine membrane preparation). The procedure:
Assay A: Antiotensin II Binding Activity
Compounds of the invention were tested for ability to bind to the smooth muscle angiotensin II receptor using a rat uterine membrane preparation. […] Rat uterine membranes were prepared from fresh tissue. All procedures were carried out at 4° C. Uteri were stripped of fat and homogenized in phosphate-buffered saline at pH 7.4 containing 5 mM EDTA. The homogenate was centrifuged at 1500×g for 20 min., and the supernatant was recentrifuged at 100,000×g for 60 min. The pellet was resuspended in buffer consisting of 2 mM EDTA and 50 mM Tris-HCl (pH 7.5) to a final protein concentration of 4 mg/ml. […] The reaction was initiates by the addition of membrane protein and the mixture was incubated at 25° C. for 60 min. The incubation was terminated with ice-cold 50 mM Tris-HCl (pH 7.5) and the mixture was filtered to separate membrane-bound labelled peptide from the free ligand. The incubation tube and filter were washed with ice-cold buffer. Filters were assayed for radioactivity in a Micromedic gamma counter. Nonspecific binding was defined as binding in the presence of 10 μM of unlabelled AII. Specific binding was calculated as total binding minus nonspecific binding. […] Binding data were analyzed by a nonlinear least-squares curve fitting program.
1Assay A: Angiotensin II Binding Activity

In assay [2] the test system is pressor response to AII. The assay is described as follows: Assay C: In vivo Intragastric Pressor Assay Response for AII Antagonists. To be noted: rat; for inhibition at 3 mg/kg: po, AII pressor response. The procedure:
Assay C: In vivo Intragastric Pressor Assay Response for All Antagonists
Male Sprague-Dawley rats weighing 225-300 grams were anesthetized with methohexital (30 mg/kg, i.p.) and catheters were implanted into the femoral artery and vein. The catheters were tunneled subcutaneously to exit dorsally, posterior to the head and between the scapulae. The catheters were filled with heparin (1000 units/ml of saline). The rats were returned to their cage and allowed regular rat chow and water ad libitum. After full recovery from surgery (3-4 days), rats were placed in Lucite holders and the arterial line was connected to a pressure transducer. Arterial pressure was recorded on a Gould polygraph (mmHg). Angiotensin II was administered as a 30 ng/kg bolus via the venous catheter delivered in a 50 μl volume with a 0.2 ml saline flush. The pressor response in mm Hg was measured by the difference from pre-injection arterial pressure to the maximum pressure achieved. The AII injection was repeated every 10 minutes until three consecutive injections yielded responses within 4 mmHg of each other. These three responses were then averaged and represented the control response to AII. The test compound was suspended in 0.5% methylcellulose in water and was administered by gavage. The volume administered was 2 ml/kg body weight. The standard dose was 3 mg/kg. Angiotensin II bolus injections were given at 30, 45, 60, 75, 120, 150, and 180 minutes after gavage. The pressor response to AII was measured at each time point. The rats were then returned to their cage for future testing. A minimum of 3 days was allowed between tests. Percent inhibition was calculated for each time point following gavage by the following formula: [(Control Response—Response at time point)/Control Response]×100.
3Assay C: In vivo Pressor Response

pIC50: −log10 of the molar value.

Regarding `CCCCc1nc(CCCC)n(Cc2ccc(-c3ccccc3C(=O)NNS(=O)(=O)C(F)(F)F)cc2)n1` [Compound 5], the pIC50 in assay [1] was 6.70. Also, in assay [2] (dose 30 mg/kg), the “Assay C Duration” value is 20 to 30 min.

Compound `CCCCc1nc(Cl)nn1Cc1ccc(-c2ccccc2C(=O)O)cc1` [Compound 6] gave a pIC50 in assay [1] of 5.89. For the same compound, in assay [2] (dose 100 mg/kg), the “Assay C Duration” value is 120 min.

For `CCCCc1nc(Cl)nn1Cc1ccc(-c2ccccc2-c2nnn[nH]2)cc1` [Compound 7], the pIC50 in assay [1] was 7.08. For the same compound, in assay [2] (dose 30 mg/kg), the “Assay C Duration” value is 130 min.

Compound `CCCCc1nc(Cl)n(Cc2ccc(-c3ccccc3C(=O)O)cc2)n1` [Compound 8] gave a pIC50 in assay [1] of 4.77.

As for `CCCCc1nc(Cl)n(Cc2ccc(-c3ccccc3-c3nnn[nH]3)cc2)n1` [Compound 9], in assay [1], the pIC50 was 6.15. Moreover, the “Assay C Duration” value in assay [2] (dose 30 mg/kg) stood at 75 min; in assay [2] (dose 100 mg/kg) it was 130 min.

The compound `CCCCc1nc(C(F)(F)CCC)nn1Cc1ccc(-c2ccccc2-c2nnn[nH]2)cc1` [Compound 10] gave a pIC50 in assay [1] of 8.31. Moreover, the results for the “Assay C Duration” value in assay [2] (dose 3 mg/kg) and in assay [2] (dose 30 mg/kg) were 100 min and 240 min, respectively.

Turning to `CCCCc1nc(C(F)(F)CCC)n(Cc2ccc(-c3ccccc3-c3nnn[nH]3)cc2)n1` [Compound 11], in assay [1], the pIC50 is 6.80.

Consider `CCCc1nc(CCC)n(Cc2ccc(-c3ccccc3-c3nnn[nH]3)cc2)n1` [Compound 15], for which the pIC50 in assay [1] is 7.80.

Compound `CCCc1nc(CCC(C)C)n(Cc2ccc(-c3ccccc3-c3nnn[nH]3)cc2)n1` [Compound 16] showed a pIC50 in assay [1] of 8.19. Compared with the last compound, the pIC50 is 0.39 log units higher.

The compound `CCCCc1nc(-c2ccccc2)nn1Cc1ccc(-c2ccccc2-c2nnn[nH]2)cc1` [Compound 21] showed a pIC50 in assay [1] of 8.15.

In the case of `CCCCc1cn(CC2CCCCC2)c(=O)n1Cc1ccc(-c2ccccc2-c2nnn[nH]2)nc1` [Compound 205], in assay [1], the pIC50 is 7.70. Also, in assay [2] (dose 3 mg/kg), the “Assay C Duration” value is >180 min and the inhibition at 3 mg/kg amounted to 40%.

With `CCCCc1cn(C2C3CC4CC(C3)CC2C4)c(=O)n1Cc1ccc(-c2ccccc2-c2nnn[nH]2)nc1` (stereo not drawn) [Compound 213], the pIC50 in assay [1] was 7.29.

In assay [1], `CCCCc1nc(CCC)nn1Cc1ccc(-c2ccccc2-c2nnn[nH]2)nc1` [Compound 246] gave a pIC50 of 7.14. The pIC50 values of the last two compounds are within 0.2 log units of each other.

In assay [1], `CCCCc1nc(CC(CC)CC)n(Cc2ccc(-c3ccccc3-c3nnn[nH]3)nc2)n1` [Compound 250] showed a pIC50 of 7.37. The same compound yielded an inhibition at 3 mg/kg in assay [2] (dose 3 mg/kg) of 0%.
